Experimental data published in US20250144067A1, “PERSONALIZED STARVATION THERAPY FOR CANCER” (Faeth Therapeutics, Inc., priority 2021, published 2025).
Where a name gives a salt, the structure may show the parent alone. Read-outs that look alike come from different tables or passages of the source. Ends that are not written are not given here.

Assays:
[1] = test system: NCI-H292 lung cancer cells; assay: FDA drug screening, complete media vs cholesterol-free media without statin (TABLE 1); format: cell-based, human
[2] = test system: NCI-H292 lung cancer cells; assay: FDA drug screening, complete media vs cholesterol-free media with simvastatin (TABLE 2); format: cell-based, human
[3] = NCI-H292 cells, drug in cholesterol-free media with simvastatin 0.04 μM
[4] = NCI-H292 cells, drug in complete media
[5] = complete media vs cholesterol-free media + simvastatin (0.04 μM), >0 enhanced anti-cancer activity, about 0 neutral, <0 antagonist
[6] = Complete minus Cholesterol-free, >0 enhanced anti-cancer activity, about 0 neutral, <0 antagonist
[7] = NCI-H292 cells, cholesterol-free media without statin, FDA drug library screen
[8] = NCI-H292 cells, complete media, FDA drug library screen
[9] = NCI-H292 cells, cholesterol-free media with simvastatin 0.04 μM, cell growth value in FDA drug screen
[10] = NCI-H292 cells, complete media, cell growth value in FDA drug screen
[11] = complete media minus cholesterol-free media + simvastatin, >0 enhanced anti-cancer activity, about 0 neutral, <0 antagonist
[12] = NCI-H292 cells, FDA drug library screen, cholesterol-free media with simvastatin 0.04 μM
[13] = NCI-H292 cells, FDA drug library screen, complete media
[14] = Complete minus Cholesterol-free, greater than 0 enhanced anti-cancer activity, about 0 neutral, below 0 antagonist
[15] = NCI-H292 cells, FDA drug library screen, cholesterol-free media without statin
[16] = Complete minus Cholesterol-free, […]
[17] = NCI-H292 cells, cholesterol-free media with simvastatin 0.04 μM, FDA drug library screen (TABLE 2)
[18] = NCI-H292 cells, complete media, FDA drug library screen (TABLE 2)
[19] = complete media minus cholesterol-free media + simvastatin (0.04 μM), […]
[20] = NCI-H292 cells, cholesterol-free media without statin
[21] = complete vs cholesterol-free media, greater than 0 enhanced anti-cancer activity, about 0 neutral, below 0 antagonists
[22] = NCI-H292 cells, FDA library drug in cholesterol-free media with simvastatin 0.04 μM
[23] = NCI-H292 cells, FDA library drug in complete media

Compound: O=C(O)c1ccccc1OP(=O)(O)O [2-(Phosphonooxy)benzoic acid]
- Difference ([1]; Complete minus Cholesterol-free, greater than 0 enhanced anti-cancer activity, about 0 neutral, below 0 antagonists): −0.51
- Cholesterol-free ([1]; NCI-H292 cells in cholesterol-free media without statin): 1.515
- Complete ([1]; NCI-H292 cells in complete media): 1.005
- Cholesterol-free media + simvastatin (0.04 μM) [2, 3]: 1.147
- Complete Media [2, 4]: 0.9779
- Difference [2, 5]: −0.17

Compound: CCc1c2c(nc3ccc(OC(=O)N4CCC(N5CCCCC5)CC4)cc13)-c1cc3c(c(=O)n1C2)COC(=O)[C@]3(O)CC [Irinotecan (hydrochloride)]
- Difference [1, 6]: 0.02
- Cholesterol-free [1, 7]: 1.352
- Complete [1, 8]: 1.37
- Cholesterol-free media + simvastatin (0.04 μM) [2, 9]: 0.928
- Complete Media [2, 10]: 1.063
- Difference [2, 11]: 0.13

Compound: CN(C)c1cc(NC(=O)CNC(C)(C)C)c(O)c2c1C[C@H]1C[C@H]3[C@H](N(C)C)C(O)=C(C(N)=O)C(=O)[C@@]3(O)C(O)=C1C2=O [Tigecycline (tetramesylate)]
- Difference [1, 6]: 0.02
- Cholesterol-free [1, 7]: 0.1191
- Complete [1, 8]: 0.1424
- Cholesterol-free media + simvastatin (0.04 μM) [2, 12]: 0.4075
- Complete Media [2, 13]: 0.333
- Difference [2, 5]: −0.07

Compound: Clc1ccc2nsnc2c1NC1=NCCN1 [Tizanidine (hydrochloride)]
- Difference [1, 6]: 0.02
- Cholesterol-free [1, 7]: 1.07
- Complete [1, 8]: 1.09
- Cholesterol-free media + simvastatin (0.04 μM) [2, 3]: 1.174
- Complete Media [2, 4]: 0.9856
- Difference [2, 5]: −0.19

Compound: C[C@]12CC[C@@H]3c4ccc(O)cc4CC[C@H]3[C@@H]1CC[C@H]2O [Alpha-Estradiol]
- Difference [1, 14]: −0.14
- Cholesterol-free [1, 15]: 0.998
- Complete [1, 13]: 0.8561
- Cholesterol-free media + simvastatin (0.04 μM) [2, 12]: 1.11
- Complete Media [2, 13]: 1.408
- Difference [2, 11]: 0.30

Compound: CC[C@H]1[C@@H]2C[C@H]3[C@@H]4N(C)c5ccccc5[C@]45C[C@@H]([C@H]2[C@H]5O)N3[C@@H]1O [Ajmaline]
- Difference [1, 16]: −0.16
- Cholesterol-free [1, 15]: 1.107
- Complete [1, 13]: 0.943
- Cholesterol-free media + simvastatin (0.04 μM) [2, 17]: 1.33
- Complete Media [2, 18]: 1.333
- Difference [2, 19]: 0.00

Compound: CCc1ccc(Cc2ccc3c(c2)[C@]2(OC3)O[C@H](CO)[C@@H](O)[C@H](O)[C@H]2O)cc1 [Tofogliflozin (hydrate)]
- Cholesterol-free [1, 20]: 1.411
- Complete ([1]; NCI-H292 cells, complete media): 1.03
- Difference [1, 21]: −0.38
- Cholesterol-free media + simvastatin (0.04 μM) [2, 9]: 0.9605
- Complete Media [2, 10]: 1.04
- Difference [2, 11]: 0.08

Compound: Bismuth subgallate
- Difference [1, 16]: −0.19
- Cholesterol-free [1, 20]: 1.126
- Cholesterol-free media + simvastatin (0.04 μM) [2, 17]: 1.033
- Complete Media [2, 18]: 0.9832
- Difference [2, 19]: −0.05

Compound: N#Cc1ccc(C(c2ccc(C#N)cc2)n2cncn2)cc1 [Letrozole]
- Cholesterol-free [1, 20]: 1.334
- Complete ([1]; NCI-H292 cells, complete media): 1.012
- Difference [1, 21]: −0.32
- Cholesterol-free media + simvastatin (0.04 μM) [2, 22]: 1.67
- Complete Media [2, 23]: 1.21
- Difference [2, 5]: −0.46

Compound: Angiotensin III (TFA) (RVYIHPF; also: TFA salt; UniProt P01019 26-32, looked up)
- Cholesterol-free [1, 20]: 1.338
- Complete ([1]; NCI-H292 cells, complete media): 0.9878
- Difference ([1]; complete vs cholesterol-free media, […]): −0.35
- Complete Media [2, 4]: 0.8125
- Difference ([2]; complete media vs cholesterol-free media + simvastatin (0.04 μM), […]): −0.20

Compound: CN(C)CCN(Cc1ccc(Cl)cc1)c1ccccn1 [Chloropyramine hydrochloride]
- Difference [1, 14]: −0.17
- Cholesterol-free [1, 15]: 1.558
- Complete [1, 13]: 1.385
- Cholesterol-free media + simvastatin (0.04 μM) [2, 9]: 0.999
- Complete Media [2, 10]: 1.055
- Difference [2, 11]: 0.06

Compound: C=Cc1c(C)c2cc3nc(c(CC(=O)N[C@@H](CC(=O)O)C(=O)O)c4[nH]c(cc5nc(cc1[nH]2)C(C)=C5CC)c(C)c4C(=O)O)[C@@H](CCC(=O)O)[C@@H]3C [Talaporfin (sodium)]
- Difference [1, 6]: −0.29
- Cholesterol-free [1, 20]: 1.22
- Complete ([1]; NCI-H292 cells, complete media): 0.9319
- Cholesterol-free media + simvastatin (0.04 μM) [2, 12]: 1.087
- Complete Media [2, 13]: 0.9459
- Difference [2, 5]: −0.14

Compound: NC1=NCC2c3ccccc3Cc3ccccc3N12 (stereo not shown) [Epinastine]
- Cholesterol-free [1]: 0.9643
- Complete [1]: 0.9792
- Difference [1]: 0.01
- Cholesterol-free media + simvastatin (0.04 μM) [2]: 0.9831
- Complete Media [2]: 0.9656
- Difference [2]: −0.02

Compound: C[C@@](Cc1ccc(O)c(O)c1)(NN)C(=O)O [Carbidopa]
- Difference [1, 14]: −0.16
- Cholesterol-free [1, 15]: 1.15
- Complete [1, 13]: 0.9946
- Cholesterol-free media + simvastatin (0.04 μM) [2, 22]: 1.956
- Complete Media [2, 23]: 1.221
- Difference [2, 5]: −0.74
